Where no end group is shown, it is not given here.
Tests used:
[1] = rat, in vivo
Description: Intranasal administration of peptides was performed using a pressurized olfactory delivery (POD) device (Impel Neuropharma). Briefly, rats were kept in an isoflurane chamber containing 5% isoflurane for 3 minutes. After the animals were deeply anesthetized, the rats were placed in a supine position for drug injection. A POD tip (Impel Neuropharma) was carefully inserted into a nostril, and then a prefilled 25 μl catheter tube was slowly inserted appropriately 2 cm into the nostril. Thereafter, a peptide solution (PBS) (15 μl of PBS and 500 nM peptide) was slowly injected thereinto. A total of 700 μg of the FTP peptide was intranasally injected 12 hours after MCAO. After intranasal administration, the rats were maintained in the supine position for 5 minutes before they kept back to their designated cage.
A total of 500 μg of FTP was conjugated with Alexa-488 according to the manufacturer's guidelines (Molecular probes, Life Technologies). The Alexa^488 conjugated short peptide was intranasally injected with a final volume of 25 μl into each nostril using a POD device 12 hours after MCAO. After a predetermined period of time, the animals were sacrificed and tissues were excised therefrom. The tissues were washed with cold PBS and surface meninges were removed to avoid auto-fluorescence.

[2] = test system: cleaved caspase-8 and caspase-3; assay: Western blotting of cleaved caspase-8 and caspase-3 in hypoxic Neuro2a cells; format: cell-based, mouse
Description: (§1) Mouse neuroblastoma (Neuro2a, N2a) cells were obtained from ATCC and cultured in Dulbecco's Modified Eagle's Medium (DMEM) containing 10% fetal bovine serum (FBS), penicillin (100 IU/ml), and streptomycin (100 μg/ml). To duplicate an ischemia/reperfusion environment in vitro, the Neuro2a cells were cultured in a 6-well plate and maintained under a hypoxic condition (94% N2, 5% CO2, and 1% O2) in an oxygen glucose deprivation (OGD) medium (Life Technologies) for 24 hours. Subsequently, the cells were re-oxygenated in DMEM supplemented with 10% FBS (5% CO2, 20% O2, 37° C.) for 24 hours.
Neuro2a cells were lysed using a RIPA lysis buffer in the presence of […] phenylmethylsulfonyl fluoride (PMSF) as a protease inhibitor. A total of 50 μg of protein was loaded in a 12% SDS-PAGE gel and transferred onto a nitrocellulose transfer membrane (Whatman). Blots were blocked with 5% skim milk in TBST at room temperature for 2 hours and incubated at 4° C. with primary antibodies (Abcam). After a predetermined period of time, the blots were washed with TBST and incubated for 2 hours with secondary polyclonal antibodies coupled with HRP. After washing the blots three times with TBST, the blots were developed using an ECL western blotting substrate (Promega).

[3] = test system: MCAO rats; assay: H&E histology of the brain of MCAO rats; format: in vivo, rat; conditions: FTP-inoculated group, day 1 to day 5 after reperfusion, FIG. 4F
Text: (§2) Briefly, animals were anesthetized with 5% isoflurane. […] Thereafter, the CCA was completely occluded using a clip.
Paraffin-embedded brain sections were de-paraffinized, rehydrated and then subjected to H&E staining according to standard protocols. The H&E stained sections were covered with cover slips and roughly analyzed using an optical microscope.

[4] = test system: MCAO rats; assay: TTC staining and measurement of infarct volume in MCAO rats; format: in vivo, rat; conditions: 15 mmol I.N. 12 hours after reperfusion
Description: as §2
After a predetermined period of treatment, the brain was immediately removed. The expected area of damage in the brain was sliced into 3 slices (2 mm thick) including a brain matrix and then incubated in 2% 2,3,5-triphenyltetrazolium chloride (TTC, Sigma) at 37° C. for 10 minutes. The brain slices were then fixed in 4% paraformaldehyde and kept at 4° C. for 24 hours until imaging and photographing. The infarct volume was measured using Image J developed by the U.S. National Institute of Health (NIH) and calculated as commonly known.

[5] = target: T1, Fas (Mus musculus, UniProt P25446); assay: FTP binding to Fas-expressing hypoxic Neuro2a cells (flow cytometry, confocal microscopy); conditions: for binding to Fas-expressing hypoxic cells: hypoxic Neuro2a cells (OGD 24 h)
T1 construct: Neuro2a cells were cultured in an oxygen glucose deprivation (OGD) medium for 24 hour under hypoxic conditions to induce Fas expression; endogenous in cells; host or cells: Neuro2a (mouse neuroblastoma, ATCC), hypoxia/OGD-induced
T1 sequence (P25446 22-327): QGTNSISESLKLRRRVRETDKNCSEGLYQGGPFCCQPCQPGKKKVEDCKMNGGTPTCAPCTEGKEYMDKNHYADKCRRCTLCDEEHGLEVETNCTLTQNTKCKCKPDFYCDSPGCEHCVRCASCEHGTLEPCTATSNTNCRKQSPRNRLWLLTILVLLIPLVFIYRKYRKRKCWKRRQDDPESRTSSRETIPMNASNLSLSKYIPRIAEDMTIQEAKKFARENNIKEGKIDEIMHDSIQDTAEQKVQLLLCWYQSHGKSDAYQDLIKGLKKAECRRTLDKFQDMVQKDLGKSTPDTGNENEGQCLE
Description: as §1
To identify co-localization of a FTP and a Fas receptor, Neuro2a cells were seeded on a cover slip and maintained under a hypoxic condition in an OGD medium for 24 hours. After incubating for 24 hours, the cells were treated with PBS containing 1% BSA and 0.05% Tween 20 and blocked at 37° C. for 2 hours, followed by staining with an anti-Fas antibody (Abcam) and an Alexa647-conjugated FTP at 4° C. for 2 hours. After incubating for 2 hours, the cells were washed three times with PBS containing 0.05% Tween 20, and stained with a secondary antibody (Abcam) at 4° C. for 2 hours under a dark condition. Nuclei of the cells were counterstained with Hoechst 33342 and fixed with an aqueous mounting solution (Abcam). Fluorescence signals in the cells were obtained using a TSP-SP5 confocal microscope (Leika, Germany).

[6] = test system: MCAO rats; assay: Neurological evaluation (deficit grade 0-4) of MCAO rats; format: in vivo, rat
Description: as §2
The neurological deficits of each group of rats with or without peptide treatment were evaluated using a commonly known method^[2]. […] Next, the animals were placed on absorbent pads and tails thereof were pulled to examine their grips power. […] The rats were placed in a sufficiently wide space and allowed to move freely. Grade 3 was given for the case in which rats moved in a circle towards the paralyzed side when tails thereof were pulled. Grade 4 was given for the case in which rats spontaneously moved in a circle under a free environment.

[7] = test system: MCAO rats; assay: TUNEL analysis of apoptosis in brain sections of MCAO rats; format: in vivo, rat; conditions: intranasal FTP, FIG. 4G
Description: as §2
A extent of apoptosis in de-paraffinized and rehydrated brain sections was analyzed through TUNEL analysis using an In Situ Cell Death Detection Kit (Roche, Germany) according to the manufacturer's instructions.

[8] = target: T1, Fas; assay: Competition assay of a Fas antibody and a FTP on hypoxic Neuro2a cells; format: binding; conditions: FIG. 1C
Description: FIG. 1C illustrates the results of a competition assay of a Fas antibody and a FTP, wherein the representative histograms show binding of a Fas antibody to hypoxic cells after treatment with a FTP; data is expressed as mean±SD of three replicated experiments; **P<0.01, ***P<0.001; Normoxia represents cells maintained under normal culture conditions, and Hypoxia represents cells cultured in an OGD medium for 24 hours, followed by re-oxygenation in a serum-containing DMEM medium for 24 hours; and FTP: Fas targeting peptide, Scr-FTP: scrambled peptide.

[9] = test system: hypoxia-induced Neuro2a cells; assay: Inhibition of in vitro Fas-mediated apoptosis (PE Annexin V / 7-AAD flow cytometry); format: cell-based, mouse
Description: Mouse neuroblastoma (Neuro2a, N2a) cells were obtained from ATCC and cultured in Dulbecco's Modified Eagle's Medium (DMEM) containing 10% fetal bovine serum (FBS), penicillin (100 IU/ml), and streptomycin (100 μg/ml). To duplicate an ischemia/reperfusion environment in vitro, the Neuro2a cells were cultured in a 6-well plate and maintained under a hypoxic condition (94% N2, 5% CO2, and 1% O2) in an oxygen glucose deprivation (OGD) medium (Life Technologies) for 24 hours. Subsequently, the cells were re-oxygenated in DMEM supplemented with 10% FBS (5% CO2, 20% O2, 37° C.) for 24 hours. To examine an inhibitory effect of a FTP, hypoxia-induced Neuro2a cells were treated with 1,000 μM of a FTP. After incubating for 24 hours, the cells were stained using a PE Annexin V apoptosis detection kit (BD Pharmingen™) according to the manufacturer's instructions.

[10] = test system: MCAO rats; assay: Kaplan-Meier survival of MCAO rats; format: in vivo, rat; conditions: for animals survived: intranasal delivery; for rats that died over time: of the 18 rats per group, day 1 until day 5 after reperfusion, FIG. 4H
Description: as §2
The survival rate of each group of animals was evaluated using a previously described method^[3].

[11] = target: T2, Fas on hypoxic mouse neuroblastoma Neuro2a cells (mouse, UniProt P25446 22-327); assay: flow cytometry, Alexa488-labeled peptide on hypoxic Neuro2a cells
T2 construct: whole, on cells; also called Fas receptor; Fas-expressing hypoxic cells
T2 sequence (looked up): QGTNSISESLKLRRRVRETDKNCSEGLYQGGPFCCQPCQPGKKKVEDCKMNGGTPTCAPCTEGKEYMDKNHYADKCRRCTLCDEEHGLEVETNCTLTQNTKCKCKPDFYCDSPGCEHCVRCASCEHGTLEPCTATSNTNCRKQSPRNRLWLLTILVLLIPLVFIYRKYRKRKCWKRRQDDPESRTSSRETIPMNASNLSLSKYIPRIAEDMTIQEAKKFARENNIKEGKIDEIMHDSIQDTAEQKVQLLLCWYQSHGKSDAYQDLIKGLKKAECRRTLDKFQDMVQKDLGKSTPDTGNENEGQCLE

[12] = fluorescence-labeled peptide, FIG. 1B
[13] = hypoxic Neuro2a cells, 1,000 μM FTP, FIG. 2B

FTP-A^488: FTP conjugated with Alexa-488 for bio-distribution (YCDEHFCY; cysteine pairing not given here; also: conjugated with Alexa-488, position not given here)
fluorescence signal in other organs [1]: no signal was found | fluorescence signal in the lungs [1]: slight fluorescence signal | localization of labeled peptide in the brain [1]: localization of labeled peptides occurred | retention of labeled peptide in the brain [1]: maintained in the brains of MCAO-treated rats

Scr-A^488: scrambled peptide labeled with Alexa^488 (YCNSTVCY; cysteine pairing not given here; also: labeled with Alexa-488, position not given here) [reference compound]
fluorescence exposure in the liver and kidneys, Scr-A^488 group versus FTP-A^488 group [1]: much more | fluorescence signal in other organs [1]: no signal was found | fluorescence signal in the lungs [1]: slight fluorescence signal | localization of labeled peptide in the brain [1]: strong localization | retention of labeled peptide in the brain [1]: not maintained

YCDEHFCY [FTP]
decrease of cleaved caspase-3 ([2]; FIG. 2C): 40% | decrease of cleaved caspase-8 ([2]; FIG. 2C): ~50% | expression of activated cleaved caspase-8 and activated caspase-3 according to concentration ([2]; no dramatic change at full-length enzyme level, FIG. 3): decreased in a dose-dependent manner | interstitial edema and pyknotic nuclei [3]: started to reduce on day 1 after reperfusion and were alleviated on day 5 thereafter | size of the infarcted area compared to Mock (PBS)- or Scr-FTP-treatment ([4]; as early as day 1 after MCAO): significantly reduced the size of the infarcted area | infarct volume ([4]; day 1): 26% | infarct volume ([4]; day 2): 29% | infarct volume ([4]; day 3): 18% | infarct volume ([4]; day 5): 7% | recovery from the infarct ([4]; day 5 after reperfusion): almost completely recovered | binding to Fas-expressing hypoxic cells [5, 12]: only bound to the Fas-expressing hypoxic cells | binding to normal cells ([5]; fluorescence-labeled peptide, normal (normoxic) Neuro2a cells, FIG. 1B): die not bind to normal cells | engagement to Fas-expressing cells, confocal microscopic images ([5]; hypoxic Neuro2a cells, FIG. 2A): strongly engaged to the Fas-expressing cells | neurological deficits score compared to the saline-treated group ([6]; FIG. 4I): improved | neurological functions, average grade ([6]; grade 0-4, first of four values between day 1 and day 5 after reperfusion): 3.3 | neurological functions, average grade ([6]; grade 0-4, fourth of four values between day 1 and day 5 after reperfusion): 1.3 | neurological functions, average grade ([6]; grade 0-4, second of four values between day 1 and day 5 after reperfusion): 2.3 | neurological functions, average grade ([6]; grade 0-4, third of four values between day 1 and day 5 after reperfusion): 2.3 | number of apoptotic cells (TUNEL positive cells) ([7]; day 1 after reperfusion): 26% | number of apoptotic cells (TUNEL positive cells) ([7]; day 5 after reperfusion): 9% | competitive assay between FTP and α-Fas antibody [8]: bound to different regions of a Fas molecule | decrease of annexin V positive cells [9, 13]: ~50% | decrease of annexin V/7-ADD positive cells [9, 13]: ~50% | decrease in 7-AAD positive cells ([9]; hypoxic Neuro2a cells, after FTP treatment): any significant decrease was not observed | animals survived ([10]; first of three values printed for 1 to 5 days after reperfusion): 90% | animals survived ([10]; second of three values printed for 1 to 5 days after reperfusion): 80% | animals survived ([10]; third of three values printed for 1 to 5 days after reperfusion): 80% | rats that died over time [10]: 2 rats

YCNSTVCY [ScrFTP, scrambled peptide used as a control peptide, reference compound]
decrease of cleaved caspase-8 ([2]; FIG. 2C): did not decrease cleaved caspase 8 | binding to Fas-expressing hypoxic cells [5, 12]: did not bind to the hypoxic cells | progressive effect on behavior after MCAO ([6]; between day 1 and day 5): worsened | rats that died over time [10]: 11 rats

B1: scrambled peptide (Scr-FTP) (peptide)
peptide: YCNSTVCY
modifications: cysteine pairing not given here; also: Alexa488 label in binding assays, site not given here
notes: also called scrambled-FTP; Scr-A488
binding result [11]: no binding
